The source of these data is US11224565B2, “N-acyldipeptide derivatives and their uses” (NeoStrata Company, Inc., priority 2011, dated 2022).

Where “and” joins values, the source holds several entries; their conditions need not be identical. Identical values can stand only once. Peptide text beside a SMILES is read from it.

Common to all, as to assay type: in vivo, human
Test [1] relates to fungal infections of two toe nails. The test is described as follows: Topical treatment of fungal infections of toe nails. The settings on record: twice daily, after several weeks; 0.5% (w/v) N-Ac-L-Tyr-L-Tyr-NH2 in WEP442 pH 6.7 on one nail, 0.5% (w/v) N-Ac-L-Tyr-L-Tyr-NHNHAc in WEP442 pH 5.5 on another. The source says:
A subject had fungal infections of two toe nails for many years. Topical treatments with clotrimazole and salicylic acid with or without glycolic acid had not been successful, as shown by the persistent appearance of white and sandy nail plates. The subject topically applied twice daily to one infected nail plate, 0.5% (w/v) N—Ac-L-Tyr-L-Tyr-NH2 in WEP442, pH 6.7 (Example 5), and to another infected nail plate, 0.5% (w/v) N—Ac-L-Tyr-L-Tyr-NHNHAc in WEP442, pH 5.5 (Example 5) for several months. […] Continued topical applications of the formulations should eradicate the nail infections, and the toe nails should start to grow normally.

In a further test the test system is forearm skin. Briefly: Skin thickness of forearm by micrometer calipers after topical application. The settings on record: for appearance of treated left forearm at end of treatment: 1-3% (w/v) in WEP442 topically twice daily for 1-6 weeks as in the example, vehicle forearm still loose, thin and wrinkled; for increase in skin thickness of treated left forearm: 3% (w/v) in WEP442 topically twice daily, vehicle forearm no change. Here is the method: In one of the studies related to skin changes associated with aging, skin thickness was measured by micrometer calipers as follows. The skin was grasped with a 2×6 cm metal hinge; the internal faces of which were coated with emery cloth to prevent slippage, and manually squeezed to threshold subject discomfort. Combined thickness of two whole-skin layers including thickness of the two hinge leaves was measured with micrometer calipers. Thickness of the two hinge leaves was subtracted to determine the actual thickness of two whole-skin layers. Triplicate measurements on treated sites were done and an average number was used for calculation of the skin thickness. In other studies, test sites of skin 17 mm in diameter were used, the circular sites were marked with permanent ink. Intervening control sites were also 17 mm in diameter. Thickness of skin of all sites was measured directly by means of an electronic digital caliper. In this instance the jaws of the caliper were opened to 17 mm, applied with pressure to the skin sites and then closed to firm tightness. Thickness of skin was then read off the screen of the calipers. Measurements of all sites were made in triplicates.

A further test deals with stretch marks. Briefly: Topical treatment of stretch marks. The settings on record: twice daily, four weeks; 0.5% (w/w) N-Ac-L-Val-L-Ala-NH2 cream on one lesion, 0.5% (w/v) N-Ac-L-Tyr-L-Tyr-NH2 in WEP442 pH 6.7 on the other. The source says: Stretch marks, known as striae, are visible linear scars caused by changes in collagen fibers and over stretching of the skin. Stretch marks are quite common in most adult women, and they readily develop at puberty or during pregnancy. They are also very common in obese people with sudden loss of weight. At present, there is no cure or effective treatment.
A subject, having lost a total of about 60 pounds from overweight over the last 10 years, developed multiple lesions of stretch marks over the body. The subject selected two separate lesions of stretch marks, and topically applied twice daily 0.5% (w/w) N—Ac-L-Val-L-Ala-NH2 cream (Example 2) on one lesion and 0.5% (w/v) N—Ac-L-Tyr-L-Tyr-NH2 solution in WEP442, pH 6.7 (Example 5) on the other lesion with untreated lesions of stretch marks as a control.
At the end of four weeks, the fine lines of stretch marks started to disappear, and deeper lines became less deep. The treated lesions had approximately 25% improvement as judged by clinical evaluation.

For test [2], the system named is pain and inflammation of joints and muscles. The test is described as follows: Topical administration for pain and inflammation of sprained leg, shoulder or muscles. As for the experimental part: A typical example of a topical administration for systemic therapeutic effects was carried out as follows. A subject, having sprained their left leg near the knee with inflammation for several weeks had severe pain each time walking. Massage therapy and conventional treatments provided only a temporary relief. The subject topically applied and rubbed 0.4% (w/v) N—Ac-L-Val-L-Ala-NH2 in WEP442, pH 5.8 as prepared in Example 5 onto the left thigh and calf sites of skin for 30 seconds at night.
The subject topically applied twice daily 0.5% (w/v) N—Ac-L-Tyr-L-Tyr-NH2 in WEP442 solution, pH 6.7 as prepared in Example 5. […] At the end of 5 days, the right shoulder had 90% improvement as determined by clinical evaluation.
The subject topically applied twice daily 0.5% (w/v) N—Ac-L-Val-L-Ala-NH2 in WEP442 solution, pH 6.7 as prepared in Example 5 to the affected area of skin. The pain diminished with less inflammation over the next day.
In yet another embodiment, the volunteer subject topically applied once or twice daily the test compositions containing N-acyldipeptide derivatives of the present invention on the skin site above arthritic joints or painful muscles to provide therapeutic effects for the systemic disorders via topical administration.

The next test concerns insect bites. The test is described as follows: Topical application to insect bite lesions (itch, erythema, inflammation). As for the experimental part: A subject, having intensive itch and erythema on their left arm from insect bites, topically applied 10% (w/w) N—Ac-L-Leu-Gly-NH2 cream as formulated in Example 3 on the involved lesions.
A subject had multiple lesions of insect bites (mosquitoes) over the face and arms with itch and inflammatory lesions of more than 1 cm in size. For testing purposes, the subject divided the lesions into three groups: the first group was treated with vehicle control, the second and third groups were treated with active compositions. The subject topically applied twice daily 0.5% (w/v) N—Ac-L-Val-L-Ala-NH2 solution in WEP442, pH 5.9 on the lesions of the second group, and 0.5% (w/v) N—Ac-L-Tyr-L-Tyr-NH2 solution in WEP442, pH 6.7 (Example 5) on the lesions of the third group. […] The lesions in the second and third groups also started to improve over the next few days. At the end of three days, while there was no discernible change in the lesions treated with vehicle control in the first group, the lesions in the second and third groups had 90-100% improvement with nearly complete disappearance of inflammatory lesions.
A subject had multiple lesions of chigger bites (grass mites) over the legs with intensive itch and red inflammatory lesions. The subject topically applied twice daily 0.5% (w/v) N—Ac-L-Val-L-Ala-NH2 solution in WEP442, pH 6.7 (Example 5) on the lesions. […] The lesions on the legs had 100% improvement as judged by clinical evaluation.
In another embodiment, the volunteer subject topically applied the test compositions containing N-acyldipeptide derivatives of the present invention on involved skin or lesions once or twice daily for several weeks or until the involved lesions completely cleared and clinically changed to normal skin. As a control study, the subject also topically applied a vehicle control composition on the involved skin or lesions twice daily for the same period.

The mark [3] stands for this setting: mosquito bites face and arms, twice daily, 0.5% (w/v) N-Ac-L-Val-L-Ala-NH2 in WEP442 pH 5.9 (second group), 0.5% (w/v) N-Ac-L-Tyr-L-Tyr-NH2 in WEP442 pH 6.7 (third group).

For the molecule `CC(=O)N[C@@H](Cc1ccc(O)cc1)C(=O)N[C@@H](Cc1ccc(O)cc1)C(N)=O` [N-Ac-L-Tyr-L-Tyr-NH2] (Ac-Tyr-Tyr-NH2), in test [1], the “white and sandy appearance of infected nail plates” value is given as “started to change gradually”. The “appearance of treated left forearm at end of treatment” value with forearm skin was “more firm, smooth, plump, and less wrinkled when lifted”. Also, the “increase in skin thickness of treated left forearm” value with forearm skin (after 2 weeks) is 13% and 19%; in the test on forearm skin (after 3 weeks) it was 14%; in the test on forearm skin (after 4 weeks) it was 17% and 21%. The “improvement of treated stretch mark lesions as judged by clinical evaluation” value with stretch marks is recorded as “approximately 25%”. For the same molecule, in test [2] (0.5% (w/v) in WEP442 pH 6.7 topically twice daily, after three days), the “pain of sprained right shoulder” value is reported as “disappeared completely”. The “improvement of right shoulder by clinical evaluation” value in test [2] (0.5% (w/v) in WEP442 pH 6.7 topically twice daily, end of 5 days) was determined as 90%. Moreover, the “itch after topical application” value with insect bites (setting [3]) is on record as “stopped completely within a few minutes”.
As to `CC(=O)NNC(=O)[C@H](Cc1ccc(O)cc1)NC(=O)[C@H](Cc1ccc(O)cc1)NC(C)=O` [N-Ac-L-Tyr-L-Tyr-NHNHAc], the “white and sandy appearance of infected nail plates” value in test [1] is “started to change gradually”. Besides, the “appearance of treated left forearm at end of treatment” value in the test with forearm skin was “more firm, smooth, plump, and less wrinkled when lifted”. For the same molecule, the “increase in skin thickness of treated left forearm” value in the test with forearm skin (after 2 weeks) is recorded as 7%; in the test on forearm skin (after 3 weeks), 32%; in the test on forearm skin (after 6 weeks), 23%; in the test with forearm skin (after one week), 21%.
For the molecule `CC(=O)N[C@H](C(=O)N[C@@H](C)C(N)=O)C(C)C` [N-Ac-L-Val-L-Ala-NH2] (Ac-Val-Ala-NH2), the “improvement of treated stretch mark lesions as judged by clinical evaluation” value in the test on stretch marks is recorded as “approximately 25%”. For the same molecule, the pain on walking entry in test [2] (0.4% (w/v) in WEP442 pH 5.8 rubbed onto left thigh and calf at night, sprained leg, next morning) is on record as “could walk slowly without feeling any pain”. In test [2] (0.4% (w/v) in WEP442 pH 5.8 rubbed onto left thigh and calf for 30 seconds at night, sprained leg, next morning), the “improvement of left leg by clinical evaluation” value is “approximately 75%”. The “muscle pain and inflammation in both arms” value in test [2] (0.5% (w/v) in WEP442 pH 6.7 topically twice daily, end of five days) was “disappeared completely”. In test [2] (0.5% (w/v) in WEP442 pH 6.7 topically twice daily, muscle pain, end of five days), the “improvement of arms by clinical evaluation” value was 95%-100%. Moreover, the “itch after topical application” value in the test with insect bites (0.5% (w/v) in WEP442 pH 6.7 twice daily, chigger bites on legs) is given as “stopped within a few minutes”; with insect bites (setting [3]) it was “stopped completely within a few minutes”. Also, the “improvement of lesions as judged by clinical evaluation” value in the test with insect bites (0.5% (w/v) in WEP442 pH 6.7 twice daily, chigger bites on legs, end of five days) stood at 100%.
